One series deals with S1P4. The series can be described thus: S1P receptor expression in islets from db/db mice: S1P4. Particulars: after FTY720 treatment of db/db mice. It is filed as in vivo, mouse. From the text: (§1) FIG. 15. Expression of 4 FTY720-bound S1P receptors in the islets isolated from the db/db mice.
(§2) FTY720 is phosphorylated in vivo to form FTY720-P that binds S1P1, S1P3, S1P4, and S1P5 but not S1P2 (25). We determined the expression of these receptors in the islets isolated from the untreated and FTY720-treated db/db mice.

The conditions of series [1]: patients with relapsing multiple sclerosis; cited from earlier work.
For series [2], the system named is db/db mice. The series can be described thus: Fasting serum insulin levels (ELISA) in db/db mice. It is filed as in vivo, mouse. Particulars: FTY720-treated vs untreated, after overnight fasting. From the text:
FIG. 4. Fasting serum insulin levels of the db/db mice with (+FTY720) or without FTY720 (−FTY720) treatment (*p<0.01).
After overnight fasting, blood samples ([…]) were collected in a heparinized microhematocrit tube for the determination of insulin concentration using a Ultra Sensitive Mouse Insulin ELISA Kit (Crystal Chem Inc., Downers Grove, Ill.) (30).
For orientation: In an ELISA, binding on a coated surface is turned into a signal by an enzyme label.

Series [3] is described as follows: Body weight of db/db mice with or without oral FTY720. It is filed as in vivo, mouse. To be noted: FTY720-treated vs untreated group. The procedure: FIG. 2B. Time course of the body weight of db/db mice with or without oral FTY720. Open circle (∘), FTY720-untreated group; solid circle (●), pre-diabetic db/db mice (Fasting glucose<126 mg/dL) at six-week-old treated with 10 mg/kg FTY720. […]
Animals and Procedures—Five-week-old female db/db mice (BKS.Cg-m+/−Leprdb) were purchased from Jackson Laboratories (Bar Harbor, Me.). […] After 1 week, the fasting glucose levels of the 6-week-old mice were measured. […] Mice in the FTY720-treated group were fed 10 mg/kg of FTY720 daily by feeding tube and their food intake and body weight were measured twice a week. Fasting glucose levels were measured at the end of each week. […] After metabolic analysis, the pancreases were removed from the mice at 13 and 16 weeks of age for immunohistochemical analysis, quantitation of islet area, or islet isolation.

The test system of the next series is beta-cell. The series can be described thus: In vivo BrdU incorporation (beta-cell regeneration) in pancreas. The arrangement: species or system mouse. How it is done: FIG. 11. BrdU staining in the pancreatic islets after 6 weeks FTY720 treatment. After overnight fasting, the mice were given 1 mg/ml 5-bromo-2′deoxyuridine (BrdU) intraperitoneally. 24 hours later, mice were sacrificed for BrdU staining of pancreas sections. Positive BrdU staining indicates cell proliferation.
FIG. 12. BrdU staining in the duct areas of the pancreas. After 6 weeks FTY720 treatment, overnight fasted mice were given 1 mg/ml 5-bromo-2′deoxyuridine (BrdU) intraperitoneally. 24 hours later, mice were sacrificed for BrdU staining of pancreas sections.
FIG. 13. Insulin immunostaining in newly formed insulin containing cells and islets near duct (arrow) in the FTY720-treated db/db mice (Scale bar, 100 μm).
After overnight fasting, the mice were given 1 mg/ml of 5-bromo-2-deoxyuridine (BrdU) in PBS intraperitoneally. Mice were sacrificed 24 hours after BrdU injection and pancreases were removed and fixed with a 4% formaldehyde solution. The pancreases were then embedded in paraffin and sliced into 10 μm sections. Tissue sections were stained with the anti-BrdU monoclonal antibody provided in BrdU in Situ Detection Kit (BD Biosciences).
(In general: Dividing cells build labelled thymidine or BrdU into new DNA.)

The test system of series [4] is db/db mice. The series can be described thus: Weekly fasting blood glucose in db/db mice given oral FTY720. It is filed as in vivo, mouse. The procedure: FIG. 2A. Time course of the fasting glucose levels of db/db mice with or without oral FTY720. Open circle (∘), FTY720-untreated group; solid circle (●), pre-diabetic db/db mice (Fasting glucose<126 mg/dL) at six-week-old treated with 10 mg/kg FTY720; and triangle (▴), diabetic db/db mice (Fasting glucose≅430 mg/dL) at nine-week-old treated with 10 mg/kg FTY720 (n=4). I, Fasting glucose of mice at the age of 6 weeks to 12 weeks at the daily dosage of 10 mg/kg FTY720 (n=20 for the control and FTY720 treated pre-diabetic mice, respectively); II, fasting glucose levels of mice at the age of 12 weeks to 20 weeks at the daily dosage of 10 mg/kg FTY720 (n=6 for the control and FTY720 treated mice, respectively); III, fasting glucose levels of mice at the age of 20 weeks to 29 weeks at the […] dosage of 10 mg/kg FTY720 (n=2 for control and FTY720 treated mice, respectively); IV, fasting glucose levels from the mouse without FTY720 treatment after age of 29 weeks (n=2 for control and FTY720 treated mice, respectively).
Animals and Procedures—Five-week-old female db/db mice (BKS.Cg-m+/−Leprdb) were purchased from Jackson Laboratories (Bar Harbor, Me.). Mice were housed under controlled light (12 h light/12 h dark) and temperature conditions, and had free access to food (normal rodent chow) and water. All procedures were conducted in accordance with the guidelines on Animal Care and were approved by the Institutional Animal Care and Use Committee (IACUC) of Mount Sinai School of Medicine. After 1 week, the fasting glucose levels of the 6-week-old mice were measured. Mice with normal glucose levels (<126 mg/dl) were randomly divided into control and FTY720 treatment groups. Mice in the FTY720-treated group were fed 10 mg/kg of FTY720 daily by feeding tube and their food intake and body weight were measured twice a week. Fasting glucose levels were measured at the end of each week. At 12 weeks of age (when the mice had been treated for 6 weeks), all mice were subjected to metabolic analysis. After metabolic analysis, the pancreases were removed from the mice at 13 and 16 weeks of age for immunohistochemical analysis, quantitation of islet area, or islet isolation.
To rigorously determine the effects of FTY720 in vivo, pre-diabetic (age of six weeks, fasting glucose<126 mg/dL) and diabetic (age of 8-9 weeks, fasting glucose=430 mg/dL) female db/db mice were fed daily with FTY720 (+FTY720) for 29 weeks, and monitored by weekly fasting blood glucose measurements.

The next series concerns S1P1. Description: S1P receptor expression in islets from db/db mice: S1P1. Particulars: after FTY720 treatment of db/db mice. It is filed as in vivo, mouse.
Excerpt: as §1, §2

Where [5] appears, read: db/db mice after 6 weeks FTY720 treatment, no staining in untreated.

Data on 1 compound can be found in patent US8653026B2, “Treatment of type 2 diabetes with FTY720” (Diapin Therapeutics LLC, priority 2011, dated 2014).

On to `CCCCCCCCc1ccc(CCC(N)(CO)CO)cc1` [FTY720, 2-amino-2-[2-(4-octylphenyl)ethyl]propane-1,3-diol], for which, in the series on S1P4, the “S1P4 expression in islets” value is reported as “significantly elevated”. In addition, the “cancer formation in phase III clinical trials” value in series [1] is on record as “without reported cancer formation”. For the same compound, the “fasting serum insulin levels” value with db/db mice [2] is given as “significantly elevated”. Also, the weight gain result in series [3] is on record as “significantly higher”. Further, the “insulin-positive cells or small islets in the pancreatic duct area” value in the series with beta-cell (FTY720-treated db/db mice, insulin immunostaining) is “identified”. Besides, the “BrdU incorporation in the pancreatic duct area (beta-cell neogenesis)” value in the series on beta-cell (setting [5]) is on record as “BrdU incorporation was observed”. For the same compound, the “BrdU staining within the islets (beta-cell proliferation)” value in the series on beta-cell (setting [5]) is “BrdU-positive cells were easily observed”. Besides, the “distribution of fasting glucose levels” value in the series on db/db mice [4] (all FTY720-treated db/db mice, after 6 weeks treatment) is recorded as “normalized”. Further, in the series with db/db mice [4] (db/db mice, administration ceased completely after 29-weeks treatment), the “fasting glucose levels after FTY720 administration was ceased” value is “well controlled”. Besides, the fasting glucose levels result in the series with db/db mice [4] (diabetic db/db mice (glucose ≧350 mg/dL), after six weeks of oral FTY720 10 mg/kg) is listed as “became normal”; in the series with db/db mice [4] (pre-diabetic db/db mice (six weeks old, fasting glucose <126 mg/dL), 10 mg/kg FTY720 oral daily, untreated about 500 mg/dL by age 12 weeks), roughly 126 mg/dL. Besides, the “fasting glucose levels (screen)” value with db/db mice [4] (i.p. injected into or orally administrated to db/db mice) is reported as “capable of normalizing”. In addition, in the series on S1P1, the “S1P1 expression in islets” value was “significantly elevated”.
